According to US20080111109A1, “ORGANIC-ELECTROLUMINESCENCE-MATERIAL-CONTAINING SOLUTION, METHOD FOR FORMING THIN FILM OF ORGANIC ELECTROLUMINESCENCE MATERIAL, THIN FILM OF ORGANIC ELECTROLUMINESCENCE MATERIAL AND ORGANIC ELECTROLUMINESCENCE DEVICE” (Idemitsu Kosan Co., Ltd., priority 2006, published 2008):

Assay: Solubility in the solvent of a naphthacene compound with para-bonded aromatic substituents
Format: physicochemical
Details: solvent not specified (aromatic, halogen type or ether type solvent)

**Q.** With `c1ccc(-c2ccc(-c3c4ccccc4c(-c4ccc(-c5ccccc5)cc4-c4ccccc4)c4cc5ccccc5cc34)c(-c3ccccc3)c2)cc1` as the compound, how does the solubility read?
**A.** Its solubility is at most 0.1 wt %.
